Reference: patent publication US20240270786A1, “STEROID COMPOUNDS” (Epirium Bio Inc., priority 2022, published 2024)

What was measured:
[1] = Pharmacokinetics: quantitative determination of compounds in mice brains; format: in vivo, C57BL/6 Mice; conditions: C57BL/6, mouse, brain, 10 mg/kg PO single dose, vehicle 10% NMP
Method: (§1) C57BL/6 Mice, Age 7-9 weeks, body weight range 20-25 g were used. The mice were fasted overnight. Mice were dosed once a day for a single day at 10 mg/kg, 10 mg/kg. 6 time-points were used for whole blood. 10% NMP was used as a vehicle. 9 animals were used per treatment, with three groups of three animals each. Group 1 had time points at 15 and 60 minutes, Group 2 had time points at 30 and 120 minutes, and Group 3 had time points at 90 and 240 minutes. An Oral (PO) route was used. Plasma and brain samples were collected (brain sample collected at terminal time point). Plasma was collected through the centrifugation of whole blood at 10,000 rpm for 10 minutes at 4° C. Samples were stored at −80° C. until processing.
(§2) 1.00 mg/mL in 100% MeOH PP vials (prepared at RT yellow light) at 2-8° C. were used as stock solution. 12.22-50000 ng/mL using 80% MeOH PP vials (prepared at RT yellow light) at 2-8° C. were used as working solution. 0.48-2000 ng/mL (prepared at RT yellow light) was used for the curve range. For Compounds 26, 40, and 50, 1.00 mg/mL of Compound 53 in 100% methanol Ria vials (Prepared at RT yellow light) was used as IS stock solution, and 80 ng/mL of Compound 53 in 80% methanol (Prepared at RT yellow light) was used as IS working solution. For Compound 36, 1.00 mg/mL of Compound 47 in 100% methanol Ria vials (Prepared at RT yellow light) was used as IS stock solution, and 80 ng/mL of Compound 47 in 80% methanol (Prepared at RT yellow light) was used as IS working solution. A linear, 1/×2 fit type was used. The injection volume was 10 μL for Compounds 26 and 36, and 5 μL for Compounds 40 and 50. Mobile Phase A was 0.1% Formic Acid in water at room temperature. Mobile Phase B was 100% methanol at room temperature. R0 wash solution was 80% methanol at room temperature. R3 wash solution was IPA/MeOH/ACN/water (1:1:1:1) at room temperature. The column was Agilent Eclipse 50*2.1 mm 1.8 μm and the instrument was Shimadzu LC-40 UPLC and AB Sciez 6500+ with LCMS002.
100 mg of brain tissue were weighed, 400 μL of Ice cold PBS was added, and samples were homogenated using polytron homogenizer. Before starting the experiment the blade was cleaned with NS, Methanol, Methanol: Water (50:50) followed by NS. Using a pipette with Methanol-rinsed pipette tips, homogenate 50 μL of each sample (calibration curve sample, QC samples and blank matrix) was aliquoted to labeled 1.5 ml Ependorfs. Using a pipette, 5.0 μL of IS of conc. 80 ng (Cocktail IS) was aliquoted to each standards and samples except Blank. All tubes were mixed on a multi-tube vortex for approximately 30 seconds. 1 ml of tert-butyl methyl ether (TBME) was added. All tubes were mixed on a multi-tube vortex for approximately 5 minutes then centrifuged for 10 min at 5,000 rpm, 4° C. The sample was kept in methanol containing dry ice for few seconds to freeze the Aqueous layer (flash freeze method). The upper organic layer was poured from the frozen tubes into the labeled 12×75-mm rial vials and evaporated to dryness under nitrogen using Liquid Evaporator (30° C., ˜15 psi, ˜10 mins). 200 μl of reconstitution solution (0.1% Formic Acid: MeOH (20:80 v/v) were added into each tube. The samples were vortexed for 30 seconds then transferred to amber glass injection vials for injection.
At the terminal time points, animals were euthanized after blood sample collection. Their skulls were opened and whole brains were separated and collected in previously labeled tubes. The tubes were then immediately transferred into liquid nitrogen container for snap freezing. Later the samples were stored at −80° C.

[2] = Pharmacokinetics: quantitative determination of compounds in mice plasma; format: in vivo, C57BL/6 Mice; conditions: 10 mg/kg PO single dose, vehicle 10% NMP; for AUC(0-inf) / AUC(0-t) / Cmax / Tmax: C57BL/6, mouse
Method: as §1
as §2, with “0.98-4000” for “0.48-2000”
Using a pipette, 25 μL of each sample were aliquoted (calibration curve sample, QC samples and blank matrix) to labeled 1.5 ml eppendorf. Using a pipette, 5.0 μL of IS of conc. 80 ng (Cocktail IS) was aliquoted to each standards and samples except Blank. All tubes were mixed on a multi-tube vortex for approximately 30 seconds. 50 μL of 10 mM Sodium bi-carbonate were added. 1 ml of tert-butyl methyl ether (TBME) was added. All tubes were mixed on a multi-tube vortex for approximately 5 minutes then centrifuged for 10 min at 5,000 rpm for Compounds 26 and 36 and at 10,000 rpm for Compounds 40 and 50, 4° C. The sample was kept in methanol containing dry ice for few seconds to freeze the Aqueous layer (flash freeze method). The upper organic layer was poured from the frozen tubes into the labeled 12×75-mm rial vials and evaporated to dryness under nitrogen using Liquid Evaporator (30° C., ˜15 psi, ˜10 mins). 200 μl of reconstitution solution (0.1% Formic Acid: MeOH (20:80 v/v) were added into each tube. Samples were Vortexed for 30 seconds then transferred to amber glass injection vials for injection.
After test item administration, blood samples were collected from individual animals in previously labeled Heparinised blood collection tubes. Blood samples were collected from retro orbital plexus. The time points for collection of blood samples from all the animals are; 0.25, 0.5, 1, 2 and 4 hr. The collected samples were subjected to centrifugation @ 10,000 rpm for 10 minutes at 40° C. for separation of plasma. Thereafter, plasma samples were collected in previously labeled plasma tubes. These were stored at −80° C. until analysis.

SMILES | AUC(0-t) [1] [ng·h/mL] | Cmax [1] [ng/mL] | Tmax [1] [h] | T½ [2] [h] | AUC(0-inf) [2] [ng·h/mL] | AUC(0-t) [2] [ng·h/mL] | Cmax [2] [ng/mL] | Tmax [2] [h]
CN1C(=O)CC[C@@]2(C)C1=CCC1C2[C@@H](O)C[C@@]2(C)C1CC[C@@H]2NC(=O)C1CC1 (stereo partly drawn) [Compound 26, N-((4aR,5S,6aS,7S)-5-hydroxy-1,4a,6a-trimethyl-2-oxo-2,3,4,4a,4b,5,6,6a,7,8,9,9a,9b,10-tetradecahydro-1H-indeno[5,4-f]quinolin-7-yl)cyclopropanecarboxamide] | 487 | 433 | 1 | 1.03 | 993 | 930 | 2130 | 0.25
CNC(=O)[C@H]1CCC2C3CC=C4N(C)C(=O)CC[C@]4(C)C3[C@@H](O)C[C@@]21C (stereo partly drawn) [Compound 40, (4aR,5S,6aS)-5-hydroxy-N,1,4a,6a-tetramethyl-2-oxo-2,3,4,4a,4b,5,6,6a,7,8,9,9a,9b,10-tetradecahydro-1H-indeno[5,4-f] quinoline-7-carboxamide] | 2500 | 1680 | 1 | 0.933 | 2430 | 2300 | 2200 | 0.25
CC(C)CCNC(=O)C1CCC2C3CC=C4N(C)C(=O)CC[C@]4(C)C3[C@@H](O)C[C@]12C (stereo partly drawn) [Compound 36, (4aR,5S,6aS)-5-hydroxy-N-isopentyl-1,4a,6a-trimethyl-2-oxo-2,3,4,4a,4b,5,6,6a,7,8,9,9a,9b,10-tetradecahydro-1H-indeno[5,4-f]quinoline-7-carboxamide] | 1640 | 1160 | 1 | 1.11 | 1640 | 1500 | 1960 | 0.25
